From patent US10961222B2, “Chemical compound of isocitrate dehydrogenase inhibitor, and application thereof” (NANJING SANHOME PHARMACEUTICAL CO., LTD., priority 2016, dated 2021)

Assays:
IDH2-R140Q mutant enzyme = target: T1, IDH2-R140Q mutant enzyme (Homo sapiens, UniProt P48735, R140Q); assay: Inhibitory activity of compounds on IDH2-R140Q enzyme in vitro (diaphorase/resazurin fluorescence); format: biochemical; settings: R140Q IC50, IDH2-R140Q, pre-incubated 16 h with enzyme and NADPH, reaction 1 h with α-ketoglutarate
T1 construct: purchased BPS 71100-1
T1 sequence (P48735 40-452 R140Q): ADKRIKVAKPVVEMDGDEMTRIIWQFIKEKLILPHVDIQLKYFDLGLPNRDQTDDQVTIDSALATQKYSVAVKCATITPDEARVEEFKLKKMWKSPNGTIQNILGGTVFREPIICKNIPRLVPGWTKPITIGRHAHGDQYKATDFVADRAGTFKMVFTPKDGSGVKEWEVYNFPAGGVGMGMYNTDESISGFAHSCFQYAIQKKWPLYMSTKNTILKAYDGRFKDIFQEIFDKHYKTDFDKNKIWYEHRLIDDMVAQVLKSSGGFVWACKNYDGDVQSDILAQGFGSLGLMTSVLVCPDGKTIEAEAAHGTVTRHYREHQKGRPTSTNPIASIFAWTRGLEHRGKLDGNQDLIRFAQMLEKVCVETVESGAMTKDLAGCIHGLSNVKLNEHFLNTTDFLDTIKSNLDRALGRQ

[1] = tested on: human acute myeloid leukemia AM7577 cells; assay: Human acute myeloid leukemia NOD/SCID animal model: survival; format: in vivo, NOD/SCID mice; settings: gavage once a day for 14 days, 14 days after administration
Text: 1.1 Compounds to be tested: the compounds of the present disclosure prepared in the above examples, each of which was formulated into a solution in corresponding concentrations by using a vehicle (2% absolute ethanol:10% Solutol™: 88% physiological saline (v/v/v)).
1.2 Cells: human acute myeloid leukemia AM7577 cells, provided by Sino-American Crown Biotechnology (Beijing) Co., Ltd
1.4 Animals: NOD/SCID mice, 3-4 weeks old, female, purchased from Beijing Huakangkang Biotechnology Co., Ltd
Each mouse was inoculated through the tail vein at an amount of 2×10^6 cells resuspended in 100 uL of PBS.
Orbital blood samples of animals were collected weekly, labeled with human CD45, and the percentage of positive cells was detected. The animals were grouped when the percentage of peripheral blood CD45+ cells reached 5%. The proportion of peripheral blood CD45+ cells reached 5% on the 40th day after inoculation. After grouping, drugs were administered by gastric gavageonce once a day for 14 days.
The mortality rate of the animals after administration and the survival period of the surviving animals were observed.

Structure (SMILES): CC(C)(O)CNc1nc(Nc2ccnc(C(F)(F)F)c2)nc(-c2cccc(C(F)(F)F)n2)n1 [AG-221, 2-methyl-1-(4-(6-(trifluoromethyl)pyridin-2-yl)-6-(2-(trifluoromethyl)pyridin-4-ylamino)-1,3,5-triazin-2ylamino)propan-2-ol, reference compound]
- IC50 (IDH2-R140Q mutant enzyme): 21 nM
- Numbers of surviving animals ([1]; 15 mg/kg, 8 animals per group): 6
- Numbers of surviving animals ([1]; 45 mg/kg, AG-221 group 4 animals, Example 22B group 8): 3
